From patent US20020168658A1, “Amplification of nucleic acids” (YALE UNIVERSITY, priority 1995, published 2002)

How the values were obtained:
[1] = system: OCT-T1 template (80% G+C); test: Amplification using AmpliTaq DNA polymerase under standard conditions with additives; type: biochemical, human; conditions: DMSO 10% v/v, betaine up to 2.5 M, glycerol 10% v/v, formamide 10% v/v, TMACl 0.1 mM to 1.0 M
From the text: (§1) A number of test DNAs are utilized in amplification reactions. Four of the test fragments are:
(iii) a 0.8 kb fragment of human OCT-T1 cDNA, which encodes a transcription factor expressed in T lymphocytes that binds the octamer sequence, and which has an 80% G+C content (see Bhargava et al., Proc. Natl. Acad. Sci. USA 91:10260, 1993; SEQ ID NO. 4); and
As each of these fragments are cloned in pBluescript or a pUC plasmid (MHCcln1), primers for amplification of these fragments are the M13 forward primer ([…]; SEQ. ID No. 1) and the M13 reverse primer ([…]; SEQ ID No. 2). Thus, the sizes of the amplified fragments for each of these four templates, with the exception of MHCcln1, include 200 bp of multiple cloning sites of pBluescript vector.
The two G+C-rich templates are unsuccessfully amplified (MHCcln1 and OCT-T1) using AmpliTaq® DNA polymerase (Perkin-Elmer Cetus) under standard conditions. (See Science 239:487, 1988). […] In addition, betaine (>1.0 M), formamide (>5%), and TMACl (>100 mM) are inhibitory for amplification of the non-G+C-rich template OCT1.

OCT1 template (52% G+C) = test: as above; type: biochemical, human
From the text: as §1
(i) a 2.7 kb cDNA encoding the octamer binding protein, OCT1 GenBank accession No. X13403; Sturm et al., Genes & Dev. 2:1582, 1988; SEQ ID No. 8), which has a 52% G+C content;
(§2) Thus, the sizes of the amplified fragments for each of these four templates, with the exception of MHCcln1, include 200 bp of multiple cloning sites of pBluescript vector.
(§3) (See Science 239:487, 1988).

[2] = system: MHCcln1 template (64% G+C); test: as above; type: biochemical; conditions: DMSO 10% v/v, betaine up to 2.5 M, glycerol 10% v/v, formamide 10% v/v, TMACl 0.1 mM to 1.0 M
From the text: as §1
(ii) a 1.6 kb fragment from the MHC region, MHCclnl, which has a 64% G+C content (see Shukla et al., Nucleic Acids Res. 19:4233, 1991; GenBank Accession No. L20433; SEQ ID No. 3, which presents nucleotides 320 to 850 of L20433);
as §2, §3

TFR template (44% G+C) = test: Amplification using two enzyme mixture Klentaq LA16 with additives; type: biochemical, human; conditions: for TFR amplification: salt >0.15 M; for amplification of TFR: Klentaq LA16, 2.2 M betaine or 10% DMSO, FIG. 1A lanes 3-4
Protocol: (§4) Each of the G+C-rich templates is set up in an amplification reaction using a two enzyme mixture, with and without the addition of betaine (0.5 to 2.5 M), DMSO (5-10%), formnamide (5-10%), glycerol (5-10%), TMACl (0.1 mM to 1 M), and tetramethylammonium acetate (TMAA) (0.1 mM-1.0 M).
(§5) The amplification reaction (50 μl) is performed in 20 mM Tris-HCl, pH 9.0 at 25° C., containing 150 μg/ml of bovine serum albumin, 16 mM ammonium sulfate, 2.5 mM magnesium chloride, 200 μM of each dNTP, 50 ng each of the M13 forward primer and the M13 reverse primer, 0.5-1.0 ng of plasmid templates and 0.2-0.4 μl of Klentaq LA16 (a 1:15 v/v ratio of Klentaq1 (Ab Peptides Inc., St. Louis, Mo.), which is Taq DNA polymerase lacking the 5′ to 3′ exonuclease activity, and Pfu DNA polymerase (Stratagene, LaJolla, Calif.); the long and accurate (LA) system described in Barnes, Proc. Natl. Acad. Sci. USA 91:2216, 1994). DMSO, TMACl, TMAA, betaine, or the combination of DMSO and betaine is added to aliquots of the same mixture without dNTPs and overlaid with mineral oil. Amplification is performed in a thermocycler instrument using thin-walled tubes (0.5 ml). The tubes are heated at 95° C. for 15 seconds and amplification is initiated by the addition of dNTPs at 80° C. The following cycling conditions are used for 25 cycles: denaturation at 94° C. for 15 seconds, annealing at 50 to 55° C. for 1 minute, and extension at 68° C. for 5 minutes. Following amplification, 10 μl of the resulting product is loaded onto a 1% agarose gel (see Molecular Cloning: A Laboratory Manual by J. Sambrook et al., Cold Spring Harbor, 1989). The amplified DNA is stained with ethidium bromide and the gel is photographed while UV-irradiated by a transilluminator.
(§6) Various analogues of betaine and two tetraalkylammonium salts are used to amplify OCT-T1 or TFR templates. Amplification reactions are performed as above in the presence of either 2 M analogue or at least 0.15 M salt.

[3] = system: OCT-T1 template (80% G+C); test: as above; type: biochemical, human; conditions: for OCT-T1 amplification: salt >0.15 M; for amplification of OCT-T1: Klentaq LA16, 2.2 M betaine or 10% DMSO, FIG. 1A lanes 7-8
Protocol: as §4, §5, §6

OCT1 template = test: as above; type: biochemical, human; conditions: for effect on amplification of OCT1: at 0.1-1.0 M; for amplification of OCT1: 2.2 M betaine or 10% DMSO, FIG. 1A lanes 1-2
Protocol: as §4, §5

MHCcln1 template = test: as above; type: biochemical; conditions: 2.2 M betaine or 10% DMSO, FIG. 1A lanes 5-6
Protocol: as §4
as §5, with “The following cycling conditions are used for 25 cycles: denaturation at 94° C. for 15 seconds, annealing at 50 to 55° C. for 1 minute, and extension at 68° C. for 5 minutes. Following amplification, 10 μl of the resulting product is loaded onto a 1% agarose gel (see Molecular Cloning: A Laboratory Manual by J. Sambrook et al., Cold Spring Harbor, 1989). The amplified DNA is stained with ethidium bromide and the gel is photographed while UV-irradiated by a transilluminator.” left out

[4] = system: mixture of the 4 templates, OCT1, OCT-T1, TFR and MHCcln1; test: Amplification of a mixture of the four templates using Klentaq LA16, varying DMSO and/or betaine; type: biochemical; conditions: for uniformity of amplification of the four templates: DMSO (5%, 10%) or betaine (1.1 M, 2.2 M) alone, FIG. 1B lanes 9-12
Protocol: as §5
Amplification is also performed on a mixture of the four templates, varying the concentrations of DMSO and/or betaine. […] Thus, by adding both DMSO and betaine, preferably within a range of 1.0 M betaine with 6-8% DMSO or 5% DMSO with 1.2-1.8 M betaine, all four templates are amplified.

[5] = higher concentration of DMSO (12-15%) or betaine (1.8-2.5 M)

In the case of `NC=O` [formamide], the “visible amplification of OCT-T1” value [1] is reported as “did not result in visible amplification”, the “effect on amplification of the non-G+C-rich template OCT1” value (OCT1 template (52% G+C); formamide >5%) is reported as “inhibitory” and the “visible amplification of MHCcln1” value [2] is reported as “did not result in visible amplification”.

For `OCC(O)CO` [glycerol], the “visible amplification of OCT-T1” value [1] was “did not result in visible amplification” and the “visible amplification of MHCcln1” value [2] was “did not result in visible amplification”.

For `C[N+](C)(C)C.[Cl-]` [TMAC, tetramethylammonium chloride], the “visible amplification of OCT-T1” value [1] was “did not result in visible amplification”, the “effect on amplification of the non-G+C-rich template OCT1” value (OCT1 template (52% G+C); TMACl >100 mM) was “inhibitory” and the “visible amplification of MHCcln1” value [2] was “did not result in visible amplification”. The TFR amplification (TFR template (44% G+C)) was “unable to facilitate amplification”, the OCT-T1 amplification [3] was “unable to facilitate amplification” and the “effect on amplification of OCT1” value (OCT1 template) was “inhibit amplification”.

For `CC(=O)[O-].C[N+](C)(C)C` [TMAA, tetramethylammonium acetate], the TFR amplification (TFR template (44% G+C)) was “unable to facilitate amplification”, the OCT-T1 amplification [3] was “unable to facilitate amplification” and the “effect on amplification of OCT1” value (OCT1 template) was “inhibit amplification”.

In the case of `C[S+](C)[O-]` [DMSO, dimethyl sulfoxide], the “visible amplification of OCT-T1” value [1] is reported as “did not result in visible amplification”, the “amplification of MHCcln1” value (MHCcln1 template) is reported as “could be amplified” and the “visible amplification of MHCcln1” value [2] is reported as “did not result in visible amplification”. The “amplification of TFR” value (TFR template (44% G+C)) was “could be amplified”, the “amplification of OCT-T1” value [3] was “could be amplified” and the “uniformity of amplification of the four templates” value [4] was “not amplified uniformly”. For the same compound, the “amplification of all four templates” value [4, 5] was “variable amplification” and the “amplification of OCT1” value (OCT1 template) was “could be amplified”.

`C[N+](C)(C)CC(=O)O` [Glycine betaine] was tested, and the “visible amplification of OCT-T1” value [1] was “did not result in visible amplification”, the “amplification of MHCcln1” value (MHCcln1 template) was “could be amplified” and the “effect on amplification of the non-G+C-rich template OCT1” value (OCT1 template (52% G+C); betaine >1.0 M) was “inhibitory”. For the same compound, the “visible amplification of MHCcln1” value [2] was “did not result in visible amplification”, the “amplification of TFR” value (TFR template (44% G+C)) was “could be amplified” and the “amplification of OCT-T1” value [3] was “could be amplified”. For the same compound, the “amplification of all four templates” value ([4]; 2.2 M betaine (lane 12)) was “amplified to a varying extent”, the “uniformity of amplification of the four templates” value [4] was “not amplified uniformly” and the “amplification of all four templates” value [4, 5] was “variable amplification”. For the same compound, the “amplification of OCT1” value (OCT1 template) was “could be amplified”.
